Molecules are shown by their SMILES. Bounds are passed on as bounds.

The IC50 is the point on the concentration scale where inhibition reaches its midpoint. Read a high IC50 as a need for much substance.

Experiment [1] relates to ATF4 expression, HEK293T cells carrying the ATF4 luciferase reporter. As to the kind of experiment: ATF4 expression inhibition assay (ATF4 luciferase reporter). The following applies: Homo sapiens, HEK-293T, 100 nM thapsigargin, 3 hours. Format: cell-based. How it is done: The ATF4 reporter was prepared by fusing the human full length 5′UTR of ATF4 (NCBI Accession No. BC022088.2) upstream of the firefly luciferase coding sequence lacking the initiator methionine. The fused sequence was cloned into pLenti-EFla-C-Myc-DDK-IRES-Puro cloning vector (Origen #PS100085) using standard methods. Virus production was carried out by using Lenti-X™ Packaging Single Shots Protocol (Clonetech #631276). Viral particles were used to transduce HEK293T cells (ATCC #CRL-3216, ATCC Manassas, Va.), which were subsequently selected with puromycin to generate stable cell line. Cells were maintained at 37° C. and 5% CO2 in DMEM-F12 (Hyclone #SH30023.02) supplemented with 10% heat-inactivated fetal bovine serum (Gibco #16000-044), 2 mM L-glutamine (Gibco #25030-081), 100 U/ml penicillin, and 100 μg/ml streptomycin (Gibco #^15140-122).
HEK293T cells carrying the ATF4 luciferase reporter were plated on 96-well plates (Nunc) at 10,000 cells per well. Cells were treated two days after seeding with 100 nM thapsigargin (Tg) (Sigma-Aldrich #T9033) in the presence of different concentrations of selected compounds ranging from 1 nM to 10 μM. Cells without treatment or cells treated with Tg alone were used as controls. Assay plates containing cells were incubated for 3 hours at 37° C.
Luciferase reactions were performed using Luciferase Assay System (Promega #E1501) as specified by the manufacturer. Luminescence was read with an integration time of 1 s and a gain of 110 using a Cytation-5 multi-mode microplate reader (BioTek). Relative luminescence units were normalized to Tg treatment (0% inhibition) and untreated cells (100% inhibition) and the percentage of ATF4 inhibition was calculated.
Accordingly, inhibition of ATF4 expression as a result of the test compound indicates suppression of the ISR pathway.
For orientation: A reporter such as luciferase makes a cellular process visible.

The subject of experiment [2] is Chinese hamster ovary (CHO) cells. Description: Protein synthesis assay (puromycin incorporation, western blot). Format: cell-based. The following applies: 2 hours, media alone = 100%; for activity at 1 µM: Cricetulus griseus, unstressed CHO cells (without Tg), 1 μM test compound, read-out: % Protein synthesis relative to untreated (1 μM test compound); for % Recovery of protein synthesis (1 μM test compound): stressed CHO cells, 300 nM Tg plus 1 μM test compound, Tg alone = 0%. As for the experimental part: Chinese hamster ovary (CHO) cells were maintained at 37° C. and 5% CO2 in Dulbecco's Modified Eagle's Media (DMEM) supplemented with 10% fetal bovine serum, 2 mM L-glutamine, 100 U/ml penicillin, and 100 μg/ml streptomycin. After reaching 80% of confluence, cells were detached and seeded on 6 well plates in complete media, allowed to recover overnight and treated for 2 hours with 1 μM of the test compound (to assess protein synthesis levels in unstressed condition), or for 2 hours with 300 nM Tg in the presence of 1 μM of the test compound (to assess the recovery of protein synthesis in a stressed condition). Cells with Tg alone were used as controls.
After the 2 hours treatments, media were replaced by adding 10 μg/ml puromycin (Sigma Aldrich #P8833) in complete media for 30 min. Media were removed and cells were lysed with SDS-PAGE lysis buffer. Lysates were transferred to 1.5 ml tubes and sonicated for 3 min and total protein amount were quantified using BCA Protein Assay Kit (Pierce). Equal amount of protein (30 μg) was loaded on SDS-PAGE gels. Proteins were transferred onto […] PVDF membranes (BioRad) and probed with primary antibodies diluted in Tris-buffered saline supplemented with 0.1% Tween 20 (Merck #S6996184 505) and 3% bovine serum albumin (Rockland #BSA-50).
Puromycin (12D10) (Merck #MABE343) and j-actin (Sigma Aldrich #A5441) antibodies were used as primary antibody. A HRP-conjugated secondary antibody (Rockland) was employed to detect immune-reactive bands using enhanced chemiluminescence (ECL Western Blotting Substrate, Pierce). Quantification of protein bands was done by densitometry using ImageJ software.
Percent increase of protein synthesis in unstressed cells (without Tg treatment) in the presence of media alone or certain test compounds is shown in Table 3. The percentage levels were normalized to the media alone condition, which correspond to 100% protein synthesis.
Percent recovery of protein synthesis in stressed cells (with Tg treatment) due to the test compounds at 1 μM is also shown in Table 3. The levels were normalized to the media alone and Tg alone conditions, which correspond to 100% and 0% respectively.
In general terms: A western blot detects proteins with antibodies after separation by electrophoresis.

Molecule `CN1C[C@H](C(=O)N[C@H]2CC[C@H](NC(=O)COc3ccc(Cl)cc3)CC2)Oc2ccc(Cl)cc21` [Compound 85, trans-(R)-6-chloro-N-(4-(2-(4-chlorophenoxy)acetamido)cyclohexyl)-4-methyl-3,4-dihydro-2H-benzo[b][1,4]oxazine-2-carboxamide] came in with an IC50 in experiment [1] of 44 nM. Moreover, in experiment [2], the activity at 1 µM was determined as 124% and the “% Recovery of protein synthesis (1 μM test compound)” value (“% Recovery of protein synthesis” for short) is 31.6%.

For the molecule `CN1C[C@@H](C(=O)N[C@H]2CC[C@H](NC(=O)COc3ccc(Cl)cc3)CC2)Oc2ccc(Cl)cc21` [Compound 86, trans-(S)-6-chloro-N-(4-(2-(4-chlorophenoxy)acetamido)cyclohexyl)-4-methyl-3,4-dihydro-2H-benzo[b][1,4]oxazine-2-carboxamide], in experiment [1], it took 12.3 nM to reach half-maximal inhibition (IC50). Also, in experiment [2], the activity at 1 µM was determined as 125% and the “% Recovery of protein synthesis” value worked out at 108.1%.

In experiment [1], `CCN1CC(C(=O)N[C@H]2CC[C@H](NC(=O)COc3ccc(Cl)cc3)CC2)Oc2ccc(Cl)cc21` (stereo partly drawn) [Compound 87, trans-6-chloro-N-(4-(2-(4-chlorophenoxy)acetamido)cyclohexyl)-4-ethyl-3,4-dihydro-2H-benzo[b][1,4]oxazine-2-carboxamide] registered an IC50 of 90.2 nM. Moreover, in experiment [2], the activity at 1 µM is 147% and the “% Recovery of protein synthesis” value was 71.8%.

`CCN1C[C@H](C(=O)N[C@H]2CC[C@H](NC(=O)COc3ccc(Cl)cc3)CC2)Oc2ccc(Cl)cc21` [Compound 88, trans-(R)-6-chloro-N-(4-(2-(4-chlorophenoxy)acetamido)cyclohexyl)-4-ethyl-3,4-dihydro-2H-benzo[b][1,4]oxazine-2-carboxamide] gave an IC50 in experiment [1] of over 1000 nM. Besides, in experiment [2], the activity at 1 µM stood at 105% and the “% Recovery of protein synthesis” value amounted to 28.6%.

In the case of `CCN1C[C@@H](C(=O)N[C@H]2CC[C@H](NC(=O)COc3ccc(Cl)cc3)CC2)Oc2ccc(Cl)cc21` [Compound 89, trans-(S)-6-chloro-N-(4-(2-(4-chlorophenoxy)acetamido)cyclohexyl)-4-ethyl-3,4-dihydro-2H-benzo[b] [1,4]oxazine-2-carboxamide], the IC50 in experiment [1] is under 1000 nM. Besides, in experiment [2], the activity at 1 µM turned out to be 134% and the “% Recovery of protein synthesis” value is given as 21.5%.

On to `COc1cc(Cl)ccc1OCC(=O)N[C@H]1CC[C@H](NC(=O)COc2ccc(Cl)cc2)CC1` [Compound 90, trans-2-(4-chloro-2-methoxyphenoxy)-N-(4-(2-(4-chlorophenoxy)acetamido)cyclohexyl)acetamide], for which inhibition in experiment [1] was half-maximal at 61.5 nM (IC50). The activity at 1 µM in experiment [2] was 116%.

Take `Cc1cc(Cl)ccc1OCC(=O)N[C@H]1CC[C@H](NC(=O)COc2ccc(Cl)cc2)CC1` [Compound 91, trans-2-(4-chloro-2-methylphenoxy)-N-(4-(2-(4-chlorophenoxy)acetamido)cyclohexyl)acetamide]: in experiment [1], the IC50 came out at 28.7 nM. Also, the activity at 1 µM in experiment [2] turned out to be 94.8%.

The molecule `NC(=O)c1cc(Cl)ccc1OCC(=O)N[C@H]1CC[C@H](NC(=O)COc2ccc(Cl)cc2)CC1` [Compound 92] displayed an IC50 in experiment [1] of 52.2 nM. Besides, the activity at 1 µM in experiment [2] turned out to be 79.7%.

For the molecule `O=C(NC[C@H]1CC[C@H](NC(=O)COc2ccc(Cl)cc2)CC1)Nc1ccc(Cl)cc1` [Compound 93, trans-2-(4-chlorophenoxy)-N-(4-((3-(4-chlorophenyl)ureido)methyl)cyclohexyl)acetamide], the 50% inhibitory concentration (IC50) in experiment [1] turned out to be 3.88 nM. In addition, in experiment [2], the activity at 1 µM was found to be 88% and the “% Recovery of protein synthesis” value is on record as 69.1%.

Regarding `O=C(COc1ccc(Cl)cc1)N[C@H]1CC[C@H](NC(=O)C2CNc3ccc(Cl)cc3O2)CC1` (stereo partly drawn) [Compound 94, trans-7-chloro-N-(4-(2-(4-chlorophenoxy)acetamido)cyclohexyl)-3,4-dihydro-2H-benzo[b] [1,4]oxazine-2-carboxamide], in experiment [1], the IC50 was found to be 35.8 nM. For the same molecule, in experiment [2], the activity at 1 µM stood at 103% and the “% Recovery of protein synthesis” value is on record as 58.4%.

In the case of `O=C(COc1ccc(Cl)c(F)c1)NN1CCC(CNC(=O)c2cc3cc(Cl)ccc3o2)CC1` [Compound 95, 5-chloro-N-((1-(2-(4-chloro-3-fluorophenoxy)acetamido)piperidin-4-yl)methyl)benzofuran-2-carboxamide], in experiment [1], the midpoint of inhibition, the IC50, lay at 2.9 nM. In experiment [2], the activity at 1 µM was 191% and the “% Recovery of protein synthesis” value was found to be 133.4%.

As for `O=C(NN1CCC(CNC(=O)c2cc3cc(Cl)ccc3o2)CC1)c1ccc2cc(Cl)ccc2n1` [Compound 96, 6-chloro-N-(4-((5-chlorobenzofuran-2-carboxamido)methyl)piperidin-1-yl)quinoline-2-carboxamide], the midpoint of inhibition in experiment [1], the IC50, lay at 1.05 nM. In addition, the activity at 1 µM in experiment [2] came to 258%.

With `O=C(NCC1CCN(NC(=O)c2cc3cc(Cl)ccc3o2)CC1)c1cc2cc(Cl)ccc2o1` [Compound 97, 5-chloro-N-(4-((5-chlorobenzofuran-2-carboxamido)methyl)piperidin-1-yl)benzofuran-2-carboxamide], the midpoint of inhibition in experiment [1], the IC50, lay at 0.59 nM. Further, in experiment [2], the activity at 1 µM came to 211% and the “% Recovery of protein synthesis” value is recorded as 249.6%.

Consider `O=C(COc1ccc(Cl)c(F)c1)NN1CCC(CNC(=O)c2ccc(Cl)cn2)CC1` [Compound 98, 5-chloro-N-((1-(2-(4-chloro-3-fluorophenoxy)acetamido)piperidin-4-yl)methyl)picolinamide], for which half-maximal inhibition in experiment [1] (IC50) required 30.4 nM. In experiment [2], the activity at 1 µM is -24.9% and the “% Recovery of protein synthesis” value was 124.5%.

On to `O=C(COc1ccc(Cl)cc1)NN1CCC(CNC(=O)Nc2ccc(Cl)cc2)CC1` [Compound 99, 2-(4-chlorophenoxy)-N-(4-((3-(4-chlorophenyl)ureido)methyl)piperidin-1-yl)acetamide], for which the IC50 in experiment [1] is 14.5 nM. Also, in experiment [2], the activity at 1 µM is -42% and the “% Recovery of protein synthesis” value was found to be 122.3%.

The values are drawn from patent publication US20210317102A1, “INHIBITORS OF INTEGRATED STRESS RESPONSE PATHWAY” (Praxis Biotech LLC, priority 2019, published 2021).
